Common to all, as to format: biochemical
Test [1] concerns the target T1, MMP-7 (MLN; human matrilysin) (Homo sapiens, UniProt P09237).
T1 sequence (P09237 95-267): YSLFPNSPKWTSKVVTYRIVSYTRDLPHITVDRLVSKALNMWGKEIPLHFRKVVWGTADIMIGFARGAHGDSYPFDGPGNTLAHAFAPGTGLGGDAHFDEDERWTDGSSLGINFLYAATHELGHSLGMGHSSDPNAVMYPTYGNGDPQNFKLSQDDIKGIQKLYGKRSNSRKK
Briefly: Enzyme kinetic assay, inhibition of MMP-7. As to conditions: for IC50: 25° C., pH 7.5, substrate 1 μM, read-out: IC50 (value without parentheses), MLN MMP-7; for Ki: read-out: Ki (value in parentheses), MLN MMP-7. From the text: (§1) The following protocol was used to obtain the data found in the following table. Materials: The fluorescent peptide substrates for matrix metalloproteinases (MMPs) used were purchased from Bachem Chem. Co. The metal salts and Brij-35 were purchased from Fisher Scientific Inc. All other chemicals were purchased from Sigma-Aldrich Chem. Co. The sources and biochemical characterizations of multiple MMPs, including MMP-1/human fibroblast collagenase (HFC), MMP-2/human fibroblast gelatinase (HFG), MMP-8/human neutrophil collagenase (HNC), and MMP-9/human neutrophil gelatinase (HNG), MMP-7/human matrilysin (MLN), MMP-3/human fibroblast stromelysin-1 (HFS), human recombinant catalytic domain of membrane-type 1 matrix metalloproteinase (cdMT1-MMP), catalytic domain of MMP-12/metalloelastase (cdMET), and MMP-26/human endometase (EDM) were described previously (Sang, Q. X., Birkedal-Hansen, H., and Van Wart, H. E. Proteolytic and non-proteolytic activation of human neutrophil progelatinase B. Biochim. Biophys. Acta. 1995; 1251, 99-108; Sang, Q. A., Bodden, M. K., and Windsor, L. J. Activation of human progelatinase A by collagenase and matrilysin: activation of procollagenase by matrilysin. J. Protein. Chem. 1996; 15, 243-253; Li, H., Bauzon, D. E., Xu, X., Tschesche, H., Cao, J., and Sang, Q.-X. A. Immunological characterization of cell-surface and soluble forms of membrane type 1 matrix metalloproteinase in human breast cancer cells and in fibroblasts. Molec. Carcinog. 1998; 22, 84-94; Park, H. I., Ni, J., Gerkema, F. E., Liu, D., Belozerov, V. E., and Sang, Q.-X. A. Identification and characterization of human endometase (Matrix metalloproteinase-26) from endometrial tumor. J. Biol. Chem., 2000; 275, 20540-20544). The active concentrations of MMPs were determined by titration with GM6001, a tight-binding MMP inhibitor, as described previously (Park, H. I., Turk, B. E., Gerkema, F. E., Cantley, L. C., and Sang, Q.-X. A. Peptide substrate specificities and protein cleavage sites of human endometase/matrilysin-2/matrix metalloproteinase-26. J. Biol. Chem. 2002; 277, 35168-35175).
(§2) The active inhibitor concentrations were estimated by titrating the mercapto group with 5,5′-dithiobis(2-nitrobenzoic acid) (DTNB; Ellman's reagent) as described previously (Ellman, G. L. A colorimetric method for determining low concentrations of mercaptans. Arch. Biochem. Biophys. 1958; 74, 443-450; Ellman, G. L. Tissue sulfhydryl groups. Arch. Biochem. Biophys. 1959; 82, 70-77; Riddles, P. W., Blakeley, R. L., and Zerner, B. Ellman's reagent: 5,5′-dithiobis(2-nitrobenzoic acid)—a reexamination. Anal. Biochem. 1979; 94, 75-81). Briefly, the reaction of DTNB with the mercapto group produces 2-nitro-5-thiobenzoic acid (TNB). The concentration of TNB is then measured by monitoring the absorbance at 412 nm. Cysteine was used to generate the standard curve with a molar extinction coefficient of 14,000±500 M^−1 cm^−1, which is close to the value in the literature (Riddles, P. W., Blakeley, R. L., and Zerner, B. Ellman's reagent: 5,5′-dithiobis(2-nitrobenzoic acid)—a reexamination. Anal. Biochem. 1979; 94, 75-81).
(§3) The substrate Mca-PLGLDpaAR-NH2 was used to measure inhibition constants (Knight, C. G., Willenbrock. F., and Murphy, G. A novel coumarin-labelled peptide for sensitive continuous assays of the matrix metalloproteinases. FEBS Lett. 1992; 296, 263-266). Enzymatic assays were performed at 25° C. in 50 mM HEPES buffer at pH 7.5 in the presence of 10 mM CaCl2, 0.2 M NaCl, and 0.01% or 0.05% Brij-35 with substrate concentrations of 1 μM. The release of product was monitored by measuring fluorescence (excitation and emission wavelengths of 328 nm and 393 nm, respectively) with a Perkin Elmer Luminescence Spectrophotometer LS 50B connected to a temperature controlled water bath. All stock solutions of inhibitors were in dimethyl sulfoxide. […]

For test [2], the target named is MMP-3 (HFS; human fibroblast stromelysin-1) (Homo sapiens, UniProt P08254). Briefly: Enzyme kinetic assay, inhibition of MMP-3. As to conditions: for IC50: 25° C., pH 7.5, substrate 1 μM, read-out: IC50 (value without parentheses), HFS MMP-3; for Ki: read-out: Ki (value in parentheses), HFS MMP-3.
Description: as §1, §2, §3

The target in test [3] is T2, MMP-12 (cdMET; catalytic domain of MMP-12/metalloelastase) (Homo sapiens, UniProt P39900).
T2 construct: catalytic domain of MMP-12/metalloelastase (cdMET)
Briefly: Enzyme kinetic assay, inhibition of MMP-12. As to conditions: read-out: Ki (value in parentheses), cdMET MMP-12.
Description: as §1, §2, §3

Test [4] addresses T3, MMP-14 (cdMT-1; human recombinant catalytic domain of membrane-type 1 matrix metalloproteinase) (Homo sapiens, UniProt P50281).
T3 construct: human recombinant catalytic domain of membrane-type 1 matrix metalloproteinase (cdMT1-MMP)
Briefly: Enzyme kinetic assay, inhibition of MMP-14. As to conditions: read-out: Ki (value in parentheses), cdMT-1 MMP-14.
Description: as §1, §2, §3

Test [5] has as its target MMP-13 (COL-3) (Homo sapiens, UniProt P45452). Nature of the test: Enzyme kinetic assay, inhibition of MMP-13. As to conditions: read-out: Ki (value in parentheses), COL-3 MMP-13.
Description: as §1, §2, §3

The target of test [6] is MMP-9 (HNG; human neutrophil gelatinase) (Homo sapiens, UniProt P14780). Briefly: Enzyme kinetic assay, inhibition of MMP-9. As to conditions: read-out: Ki (value in parentheses), HNG MMP-9.
Description: as §1, §2, §3

Test [7] concerns the target T4, MMP-26 (EDM; human endometase) (Homo sapiens, UniProt Q9NRE1).
T4 sequence (Q9NRE1 90-261): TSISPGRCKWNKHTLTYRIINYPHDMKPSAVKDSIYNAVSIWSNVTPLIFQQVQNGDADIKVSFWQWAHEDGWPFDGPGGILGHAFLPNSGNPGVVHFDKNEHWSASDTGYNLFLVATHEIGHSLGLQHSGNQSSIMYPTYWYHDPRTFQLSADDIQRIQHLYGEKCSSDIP
Briefly: Enzyme kinetic assay, inhibition of MMP-26. As to conditions: read-out: Ki (value in parentheses), EDM MMP-26.
Description: as §1, §2, §3

Where a name gives a salt, the structure may show the parent alone. Bounds are passed on as bounds.

MMP-3 (HFS; human fibroblast stromelysin-1), sequence (P08254 100-477): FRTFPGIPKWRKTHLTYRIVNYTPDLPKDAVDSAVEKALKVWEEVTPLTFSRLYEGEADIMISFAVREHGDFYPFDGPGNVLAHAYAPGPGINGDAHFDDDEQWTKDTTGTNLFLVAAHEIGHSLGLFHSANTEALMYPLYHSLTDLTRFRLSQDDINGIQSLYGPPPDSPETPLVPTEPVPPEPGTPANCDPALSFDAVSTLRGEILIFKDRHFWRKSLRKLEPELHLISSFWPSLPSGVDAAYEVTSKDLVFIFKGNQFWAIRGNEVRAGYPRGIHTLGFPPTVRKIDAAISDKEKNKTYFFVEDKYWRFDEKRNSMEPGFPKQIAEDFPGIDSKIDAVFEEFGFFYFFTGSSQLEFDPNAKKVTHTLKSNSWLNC
T2 sequence (P39900 106-263 limits assumed, species assumed): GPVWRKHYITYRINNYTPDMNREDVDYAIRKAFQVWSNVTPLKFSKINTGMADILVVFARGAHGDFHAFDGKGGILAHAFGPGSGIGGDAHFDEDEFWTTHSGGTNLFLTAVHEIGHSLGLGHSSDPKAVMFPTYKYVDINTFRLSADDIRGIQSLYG
MMP-9 (HNG; human neutrophil gelatinase), sequence (P14780 94-707): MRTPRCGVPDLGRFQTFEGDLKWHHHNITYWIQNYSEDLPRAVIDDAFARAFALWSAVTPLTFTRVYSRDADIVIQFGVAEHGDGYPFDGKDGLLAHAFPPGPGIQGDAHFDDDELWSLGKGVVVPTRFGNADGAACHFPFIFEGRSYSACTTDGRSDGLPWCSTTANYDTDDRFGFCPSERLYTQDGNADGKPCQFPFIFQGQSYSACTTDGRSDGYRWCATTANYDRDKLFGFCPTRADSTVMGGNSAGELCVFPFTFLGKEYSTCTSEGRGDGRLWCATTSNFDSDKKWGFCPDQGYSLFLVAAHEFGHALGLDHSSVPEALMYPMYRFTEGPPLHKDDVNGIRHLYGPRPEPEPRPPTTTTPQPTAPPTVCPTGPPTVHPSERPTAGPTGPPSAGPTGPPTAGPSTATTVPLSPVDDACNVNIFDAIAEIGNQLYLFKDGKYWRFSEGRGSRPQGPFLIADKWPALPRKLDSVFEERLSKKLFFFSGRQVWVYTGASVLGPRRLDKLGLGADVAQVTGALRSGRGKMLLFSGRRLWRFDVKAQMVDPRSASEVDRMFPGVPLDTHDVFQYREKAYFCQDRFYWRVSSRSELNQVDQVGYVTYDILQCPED

For the molecule `O=C(OCc1ccccc1)N1C[C@H](NS(=O)(=O)c2ccc(-c3ccccc3)cc2)[C@@H](S)C1` (racemic) [Example 6, (±)-N-(Benzyloxycarbonyl)-trans-3-(4-phenylbenzenesulfonamido)-4-mercaptopyrrolidine], the half-maximal inhibitory concentration (IC50) in test [1] is more than 12500 nM; in test [2] it was approximately 7000 nM. For the same molecule, the inhibition constant (Ki) in test [3] came to 710 nM; in test [4] it was 3100 nM; in test [5], 100 nM; in test [6], 81 nM; in test [7] it was 650 nM.

As to `NC(=O)N1C[C@H](NS(=O)(=O)c2ccc(Oc3ccccc3)cc2)[C@@H](S)C1` (racemic) [Example 1, (±)-N-Carbamoyl-trans-3-(4-phenoxybenzenesulfonamido)-4-mercaptopyrrolidine], the 50% inhibitory concentration (IC50) in test [1] was more than 25000 nM. For the same molecule, the Ki in test [2] was 460 nM; in test [3], 250 nM; in test [4], 11 nM; in test [5], 50 nM; in test [6] it was 15 nM; in test [7], 32 nM.

For `CC(=O)NCCCCCC(=O)N1C[C@H](NS(=O)(=O)c2ccc(Oc3ccccc3)cc2)[C@@H](S)C1` (racemic) [Example 8, (±)-N-(6-Acetamidohexanoyl)-trans-3-(4-phenoxy-benzenesulfonamido)-4-mercaptopyrrolidine], the Ki was 3000 nM in test [1]; 810 nM in test [2]; 2 nM in test [3]; 4 nM in test [4]; 1.7 nM in test [5]; 1.5 nM in test [6]. Also, the Ki in test [7] stood at 3 nM.

Regarding `O=C(OCc1ccccc1)N1C[C@H](NS(=O)(=O)c2ccc(Oc3ccccc3)cc2)[C@@H](S)C1` (racemic) [Example 5, (±)-N-(Benzyloxycarbonyl)-trans-3-(4-phenoxybenzenesulfonamido)-4-mercaptopyrrolidine], in test [1], the half-inhibitory concentration (IC50) was more than 50000 nM. Besides, the Ki in test [2] worked out at 4500 nM; in test [3], 720 nM; in test [4] it was 100 nM; in test [5] it was 450 nM; in test [6], 13 nM; in test [7], 72 nM.

As to `O=C(NCCN1C(=O)c2ccccc2C1=O)N1C[C@H](NS(=O)(=O)c2ccc(Oc3ccccc3)cc2)[C@@H](S)C1` (racemic) [Example 2, (±)-N-(2-Phthalimidoethylaminocarbonyl)-trans-3-(4-phenoxybenzenesulfonamido)-4-mercaptopyrrolidine], the 50% inhibitory concentration (IC50) in test [1] was more than 12500 nM. The Ki came to 37 nM in test [2]; 2 nM in test [3]; 21 nM in test [4]; 27 nM in test [5]; 2.4 nM in test [6]; 41 nM in test [7].

For `NCCCCCC(=O)N1C[C@H](NS(=O)(=O)c2ccc(Oc3ccccc3)cc2)[C@@H](S)C1` (racemic) [Example 7, (±)-N-(6-Aminohexanoyl)-trans-3-(4-phenoxybenzene-sulfonamido)-4-mercaptopyrrolidine Hydrochloride], the inhibition constant (Ki) in test [1] came out at 4000 nM; in test [2], 2000 nM; in test [3], 4.8 nM; in test [4], 5 nM; in test [5], 2 nM; in test [6] it was 2.3 nM. For the same molecule, the inhibitory constant (Ki) in test [7] turned out to be 4 nM.

In the case of `O=S(=O)(N[C@H]1CNC[C@@H]1S)c1ccc(Oc2ccccc2)cc1` (racemic) [Example 3, (±)-trans-3-(4-Phenoxybenzenesulfonamido)-4-mercaptopyrrolidine Hydrochloride], in test [1], the concentration for half-maximal inhibition (IC50) was more than 25000 nM. Besides, the Ki in test [2] was 2500 nM; in test [3], 38 nM; in test [4], 110 nM; in test [5], 35 nM; in test [6], 230 nM; in test [7], 28 nM.

Regarding `CC(=O)NCCCCCC(=O)N1C[C@H](NS(=O)(=O)c2ccc(-c3ccccc3)cc2)[C@@H](S)C1` (racemic) [Example 9, (±)-N-(6-Acetamidohexanoyl)-trans-3-(4-phenylbenzene-sulfonamido)-4-mercaptopyrrolidine], the Ki stood at 2000 nM in test [1]; 29 nM in test [3]; 70 nM in test [4]; 47 nM in test [5]; 400 nM in test [6]; 270 nM in test [7]. Also, the half-inhibitory concentration (IC50) in test [2] is approximately 20000 nM.

With `CN([C@H]1CN(C(N)=O)C[C@@H]1S)S(=O)(=O)c1ccc(Oc2ccccc2)cc1` (racemic) [Example 4, (±)-N-Carbamoyl-trans-3-(N-methyl-4-phenoxybenzenesulfonamido)-4-mercaptopyrrolidine], the IC50 in test [1] is more than 25000 nM. The Ki in test [2] is 350 nM; in test [3], 160 nM; in test [4] it was 62 nM; in test [5], 28 nM; in test [6], 1.3 nM; in test [7] it was 19 nM.

As a reminder, the IC50 is the concentration that inhibits the measured activity by half. What is called Ki is the equilibrium dissociation constant of an inhibitor or competing ligand from its target.

(Values after US8404866B2, “Substituted heterocyclic mercaptosulfonamide metalloprotease inhibitors” (Florida State University Research Foundation, priority 2008, dated 2013).)
